These results are taken from BindingDB's records for doi:10.1111/cbdd.12746 (Ahi Evran University, 2016).

What is called IC50 is the point on the concentration scale where inhibition reaches its midpoint. A high value points to lower potency. A word on the Ki: it is a dissociation constant, usually derived from enzyme kinetics or from competition with a known ligand. A lower Ki goes with higher affinity.

This assay deals with Serum paraoxonase/arylesterase 1 (Homo sapiens, UniProt P27169). The assay is described as follows: Paraoxonase Activity Assay. The conditions noted are these: pH 10.5. As for the experimental part: Paraoxonase enzyme activity was determined at 25 °C with paraoxon (1 mM) in 50 mM glycine-NaOH (pH 10.5) containing 1 mM CaCl2. The enzyme assay was based on the estimation of p-nitrophenol at 412 nm. Assays were performed using a spectrophotometer (CHEBIOS UV-VIS, Fullerton, CA). The molar extinction coefficient of paranitrophenol (Ɛ = 18 290/M/cm at pH 10.5) is used for thecalculation of enzyme activity. One enzyme unit was defined as the amount of enzyme that catalyzes the hydrolysis of 1 µmol of paraoxon at 25 °C (J. Chromatogr. B. 2006, 836:15-21).
Serum paraoxonase/arylesterase 1, sequence (P27169 whole entry): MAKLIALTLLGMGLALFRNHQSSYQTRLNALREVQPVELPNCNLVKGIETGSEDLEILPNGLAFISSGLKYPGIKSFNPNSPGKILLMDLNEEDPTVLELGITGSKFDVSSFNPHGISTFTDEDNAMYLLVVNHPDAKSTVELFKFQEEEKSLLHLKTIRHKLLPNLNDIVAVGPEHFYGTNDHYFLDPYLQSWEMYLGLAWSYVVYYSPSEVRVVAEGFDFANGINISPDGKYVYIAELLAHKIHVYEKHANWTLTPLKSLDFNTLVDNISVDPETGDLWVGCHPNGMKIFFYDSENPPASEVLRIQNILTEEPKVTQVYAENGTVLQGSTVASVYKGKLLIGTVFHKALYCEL
`CC(=O)O[C@H]1C(=O)[C@@]2(C)[C@H]([C@H](OC(=O)c3ccccc3)[C@]3(O)C[C@H](OC(=O)[C@H](O)[C@@H](NC(=O)c4ccccc4)c4ccccc4)C(C)=C1C3(C)C)[C@]1(OC(C)=O)CO[C@@H]1C[C@@H]2O` gave an IC50 of 42 µM and an inhibition constant Ki of 16.5 µM.
Taken in the same sequence, the figures for `COc1cc([C@@H]2c3cc4c(cc3[C@@H](O[C@@H]3O[C@@H]5CO[C@@H](C)O[C@H]5[C@H](O)[C@H]3O)[C@H]3COC(=O)[C@H]23)OCO4)cc(OC)c1O` [4'-Demethylepipodophyllotoxin 9-(4,6-O-(R)-ethylidene-beta-D-glucopyranoside)] were 226 µM and 131 µM.
Taken in the same sequence, the figures for `CC(=O)O[C@@]12CO[C@@H]1C[C@H](O)[C@@]1(C)C(=O)[C@H](O)C3=C(C)[C@@H](OC(=O)[C@H](O)[C@@H](NC(=O)OC(C)(C)C)c4ccccc4)C[C@@](O)([C@@H](OC(=O)c4ccccc4)[C@H]21)C3(C)C` [CID148124] were 665 µM and 291 µM.
In the case of `O=P1(NCCCl)OCCCN1CCCl` (stereo not drawn) [N,3-bis(2-chloroethyl)-2-oxo-1,3,2-oxazaphosphinan-2-amine], the IC50 came to 23300 µM and the Ki is 8970 µM.
